According to patent publication US8372967B2, “Compounds and methods for modulating expression of GCCR” (Isis Pharmaceuticals, Inc., priority 2006, dated 2013):
Strand notation (5' to 3'): a small letter for the sugar, then the base; units joined by * are phosphorothioate-linked, units joined directly phosphodiester-linked; [ ] holds rarer units or linkages, { } end groups; capitals alone tell only the bases. e = 2'-O-(2-methoxyethyl) (MOE); [5mC] = 5-methylcytosine; d = 2'-deoxy (DNA)

Tests used:
Format in all cases: in vivo, mouse
SGLT2 mRNA = SGLT2 mRNA in kidney of Balb/c mice, twenty 1-10-1 MOE gapmers, PPS 534 and PPS 553 (Table 74); details: i.p. 350 nmol/kg twice per week for two weeks
Experimental: Twenty 1-10-1 MOE gapmers that are complementary to human/monkey/mouse/rat SGLT2 were designed, synthesized and tested in vivo for suppression of SGLT2 mRNA levels in kidney. Data are averages from two experiments in which male 6-week old Balb/c mice were administered intraperitoneal injections of 350 nmol/kg of oligonucleotide, twice per week, over a period of two weeks (a total of four injections). Mice were sacrificed 48 hours following the last administration and evaluated for SGLT2 mRNA levels in kidney. SGLT2 mRNA levels were determined by quantitative real-time PCR analysis according to standard procedures, using two different PCR primer probe sets, primer probe set (PPS) 534 and PPS 553. SGLT2 mRNA levels were normalized to cyclophilin mRNA levels, which were also measured by quantitative real-time PCR.

[1] = Organ weights: liver, WAT, spleen, kidney, GCGR study (Table 33); details: 48 h
Experimental: (§1) Eight-week old male C57/BL6 mice (Jackson Laboratory, Bar Harbor, Me.) were administered a single dose of GCGR oligonucleotide by intraperitoneal injection at a concentration of […]. Each dose group consisted of four animals. Shown in Table 31 are the sequences, motifs and conjugates of the GCGR antisense compounds used in this study. Bolded residues indicate 2′-O-methoxyethyl (2′-MOE) moieties. All compounds comprise phosphorothioate internucleoside linkages throughout and each cytosine is replaced with 5-methylcytosine. ISIS 386626, ISIS 386627 and ISIS 386628 further comprise a C16 conjugate group attached to the 2′-O position of the sugar via a diamide linkage (2′-OCH2C(═O)N(H)(CH2)4N(H)C(═O)—(CH2)15CH3). GCGR antisense compounds target published GCGR sequences, including Genbank® Accession No. BC031885.1 (SEQ ID NO: 7).
(§2) Mice were sacrificed 48 hours following injection to determine serum transaminase levels (Table 32); liver, white adipose tissue (WAT), spleen and kidney weight (Table 33); cholesterol, triglyceride and glucose levels (Table 34); GCGR mRNA levels (Tables 35-41); and full-length and total oligonucleotide concentration in liver and kidney (Table 42). Endpoints were assessed using methods described herein and well known to those of ordinary skill in the art. Data is included from a pre-treatment bleed (Pre-Bleed) and post-treatment bleed (Post-Bleed).

GCGR mRNA = GCGR mRNA levels in liver, C57/BL6 mice, single i.p. dose (Tables 35-41); details: for GCGR mRNA levels: Table 35 comparison ISIS 148364 & ISIS 386626
Experimental: Prior to quantitative PCR analysis, primer-probe sets specific to the target gene being measured were evaluated for their ability to be “multiplexed” with a GAPDH amplification reaction. After isolation the RNA is subjected to sequential reverse transcriptase (RT) reaction and real-time PCR, both of which are performed in the same well. RT and PCR reagents were obtained from Invitrogen Life Technologies (Carlsbad, Calif.). […] The RT reaction was carried out by incubation for 30 minutes at 48° C. Following a 10 minute incubation at 95° C. to activate the PLATIN 9M® Taq, 40 cycles of a two-step PCR protocol were carried out: 95° C. for 15 seconds (denaturation) followed by 60° C. for 1.5 minutes (annealing/extension).
170 μL of RiboGreen® working reagent (RiboGreen® reagent diluted 1:350 in 10 mM Tris-HCl, 1 mM EDTA, pH 7.5) was pipetted into a 96-well plate containing 30 μL purified cellular RNA. The plate was read in a CytoFluor® 4000 (PE Applied Biosystems) with excitation at 485 nm and emission at 530 nm.
as §1, §2
To determine whether the phenotypic changes shown above correlated with a decrease in GCGR mRNA, treated animals were evaluated for levels of target mRNA in liver by real time PCR according to methods described herein. Tables 35 to 41 show results from direct comparisons of the antisense compounds targeting GCGR nucleic acid for their effect on target expression. Results are expressed as percent of saline control.

[2] = Triglyceride, cholesterol and glucose levels, pre-bleed and post-bleed, GCGR study (Table 34); set-up: Triglyceride (TRIG) Pre-Bleed / Triglyceride (TRIG) Post-Bleed / Cholesterol (CHOL) Pre-Bleed / Cholesterol (CHOL) Post-Bleed / Glucose Pre-Bleed / Glucose Post-Bleed: unit not given here; details: for Cholesterol (CHOL) Pre-Bleed / Triglyceride (TRIG) Pre-Bleed: pre-treatment bleed; for Cholesterol (CHOL) Post-Bleed / Triglyceride (TRIG) Post-Bleed: post-treatment bleed
Experimental: as §1, §2

[3] = ALT & AST levels and toxic effects, GCGR study (Table 32); details: C57/BL6 mice, pre-treatment bleed
Experimental: as §1, §2

[4] = primer probe set 534, normalized to cyclophilin
[5] = primer probe set 553, normalized to cyclophilin

With “379694 (antisense eG*dA*d[5mC]*dG*dA*dA*dG*dG*dT*d[5mC]*dT*eG) [compound 379694]” the “% change in SGLT2 mRNA vs saline” value (SGLT2 mRNA; [4]) was −42.1 % Saline and the “% change in SGLT2 mRNA vs saline” value (SGLT2 mRNA; [5]) was −54.4 % Saline.
In the case of “379695 (antisense eG*dG*dA*d[5mC]*dA*d[5mC]*d[5mC]*dG*dT*d[5mC]*dA*eG) [compound 379695]”, the “% change in SGLT2 mRNA vs saline” value (SGLT2 mRNA; [4]) is reported as −52.5 % Saline and the “% change in SGLT2 mRNA vs saline” value (SGLT2 mRNA; [5]) is reported as −64.1 % Saline.
In the case of “379696 (e[5mC]*dA*dG*d[5mC]*dT*dT*d[5mC]*dA*dG*dG*dT*eA; antisense) [compound 379696]”, the “% change in SGLT2 mRNA vs saline” value (SGLT2 mRNA; [4]) is reported as −24.6 % Saline and the “% change in SGLT2 mRNA vs saline” value (SGLT2 mRNA; [5]) is reported as −36.2 % Saline.
In the case of “379697 (e[5mC]*dT*dG*dG*d[5mC]*dA*dT*dG*dA*d[5mC]*d[5mC]*eA; antisense) [compound 379697]”, the “% change in SGLT2 mRNA vs saline” value (SGLT2 mRNA; [4]) is reported as −32.0 % Saline and the “% change in SGLT2 mRNA vs saline” value (SGLT2 mRNA; [5]) is reported as −46.3 % Saline.
In the case of “379698 (eG*d[5mC]*dA*dG*d[5mC]*d[5mC]*d[5mC]*dA*d[5mC]*d[5mC]*dT*e[5mC]) [compound 379698]”, the “% change in SGLT2 mRNA vs saline” value (SGLT2 mRNA; [4]) is reported as −11.8 % Saline and the “% change in SGLT2 mRNA vs saline” value (SGLT2 mRNA; [5]) is reported as −27.0 % Saline.
For “379699 (eG*dG*d[5mC]*dA*dT*dG*dA*dG*d[5mC]*dT*dT*e[5mC]) [compound 379699]”, the “% change in SGLT2 mRNA vs saline” value (SGLT2 mRNA; [4]) was −83.5 % Saline and the “% change in SGLT2 mRNA vs saline” value (SGLT2 mRNA; [5]) was −85.8 % Saline.
With “379700 (e[5mC]*d[5mC]*dA*dG*d[5mC]*dA*dT*dG*dA*dG*dT*e[5mC]; antisense) [compound 379700]” the “% change in SGLT2 mRNA vs saline” value (SGLT2 mRNA; [4]) was −2.8 % Saline and the “% change in SGLT2 mRNA vs saline” value (SGLT2 mRNA; [5]) was −16.4 % Saline.
With “379701 (e[5mC]*d[5mC]*dA*dT*dG*dG*dT*dG*dA*dA*dG*eA) [compound 379701]” the “% change in SGLT2 mRNA vs saline” value (SGLT2 mRNA; [4]) was −0.3 % Saline and the “% change in SGLT2 mRNA vs saline” value (SGLT2 mRNA; [5]) was −11.9 % Saline.
For “379702 (eG*d[5mC]*dA*d[5mC]*dA*d[5mC]*dA*dG*d[5mC]*dT*dG*e[5mC]) [compound 379702]”, the “% change in SGLT2 mRNA vs saline” value (SGLT2 mRNA; [4]) was −87.8 % Saline and the “% change in SGLT2 mRNA vs saline” value (SGLT2 mRNA; [5]) was −89.5 % Saline.
In the case of “379703 (eG*d[5mC]*d[5mC]*dG*dG*dA*dG*dA*d[5mC]*dT*dG*eA; antisense) [compound 379703]”, the “% change in SGLT2 mRNA vs saline” value (SGLT2 mRNA; [4]) is reported as −44.2 % Saline and the “% change in SGLT2 mRNA vs saline” value (SGLT2 mRNA; [5]) is reported as −45.9 % Saline.
In the case of “386626 (antisense GCTTCTCCATCATA; chemistry not fully specified) [compound 386626]”, the “Organ Weights: Kidney” value ([1]; 6.25 mg/kg single i.p.) is reported as 100 % saline control, the “Organ Weights: Liver” value ([1]; 6.25 mg/kg single i.p.) is reported as 100 % saline control and the “Organ Weights: Spleen” value ([1]; 6.25 mg/kg single i.p.) is reported as 95 % saline control. The “Organ Weights: WAT” value ([1]; 6.25 mg/kg single i.p.) was 90 % saline control, the “Organ Weights: Kidney” value ([1]; 12.5 mg/kg single i.p.) was 97 % saline control and the “Organ Weights: Liver” value ([1]; 12.5 mg/kg single i.p.) was 96 % saline control. The “Organ Weights: Spleen” value ([1]; 12.5 mg/kg single i.p.) was 114 % saline control, the “Organ Weights: WAT” value ([1]; 12.5 mg/kg single i.p.) was 73 % saline control and the “Organ Weights: Kidney” value ([1]; 25 mg/kg single i.p.) was 103 % saline control. The “Organ Weights: Liver” value ([1]; 25 mg/kg single i.p.) was 109 % saline control, the “Organ Weights: Spleen” value ([1]; 25 mg/kg single i.p.) was 120 % saline control and the “Organ Weights: WAT” value ([1]; 25 mg/kg single i.p.) was 97 % saline control. The “Organ Weights: Kidney” value ([1]; 50 mg/kg single i.p.) was 104 % saline control, the “Organ Weights: Liver” value ([1]; 50 mg/kg single i.p.) was 112 % saline control and the “Organ Weights: Spleen” value ([1]; 50 mg/kg single i.p.) was 130 % saline control. For the same substance, the “Organ Weights: WAT” value ([1]; 50 mg/kg single i.p.) was 77 % saline control, the “GCGR mRNA levels” value (GCGR mRNA; 6.25 mg/kg) was 7% of saline control and the “GCGR mRNA levels” value (GCGR mRNA; 12.5 mg/kg) was 3% of saline control. For the same substance, the “GCGR mRNA levels” value (GCGR mRNA; 25 mg/kg) was 8% of saline control, the “GCGR mRNA levels” value (GCGR mRNA; 50 mg/kg) was 0% of saline control and the “Cholesterol (CHOL) Pre-Bleed” value ([2]; 6.25 mg/kg group) was 85. The “Triglyceride (TRIG) Pre-Bleed” value ([2]; 6.25 mg/kg group) was 86, the “Cholesterol (CHOL) Post-Bleed” value ([2]; 6.25 mg/kg single i.p.) was 90 and the “Triglyceride (TRIG) Post-Bleed” value ([2]; 6.25 mg/kg single i.p.) was 162. For the same substance, the “Cholesterol (CHOL) Pre-Bleed” value ([2]; 12.5 mg/kg group) was 82, the “Triglyceride (TRIG) Pre-Bleed” value ([2]; 12.5 mg/kg group) was 100 and the “Cholesterol (CHOL) Post-Bleed” value ([2]; 12.5 mg/kg single i.p.) was 76. The “Triglyceride (TRIG) Post-Bleed” value ([2]; 12.5 mg/kg single i.p.) was 148, the “Cholesterol (CHOL) Pre-Bleed” value ([2]; 25 mg/kg group) was 87 and the “Triglyceride (TRIG) Pre-Bleed” value ([2]; 25 mg/kg group) was 100. For the same substance, the “Cholesterol (CHOL) Post-Bleed” value ([2]; 25 mg/kg single i.p.) was 72, the “Triglyceride (TRIG) Post-Bleed” value ([2]; 25 mg/kg single i.p.) was 187 and the “Cholesterol (CHOL) Pre-Bleed” value ([2]; 50 mg/kg group) was 79. For the same substance, the “Triglyceride (TRIG) Pre-Bleed” value ([2]; 50 mg/kg group) was 87, the “Cholesterol (CHOL) Post-Bleed” value ([2]; 50 mg/kg single i.p.) was 57 and the “Triglyceride (TRIG) Post-Bleed” value ([2]; 50 mg/kg single i.p.) was 163. The “ALT Pre-Bleed” value ([3]; dose group 6.25 mg/kg) was 26 IU/L, the “AST Pre-Bleed” value ([3]; dose group 6.25 mg/kg) was 46 IU/L and the “ALT Pre-Bleed” value ([3]; dose group 12.5 mg/kg) was 28 IU/L. For the same substance, the “AST Pre-Bleed” value ([3]; dose group 12.5 mg/kg) was 44 IU/L, the “ALT Pre-Bleed” value ([3]; dose group 25 mg/kg) was 30 IU/L and the “AST Pre-Bleed” value ([3]; dose group 25 mg/kg) was 44 IU/L. The “ALT Pre-Bleed” value ([3]; dose group 50 mg/kg) was 28 IU/L and the “AST Pre-Bleed” value ([3]; dose group 50 mg/kg) was 48 IU/L.
With “ISIS 386626: GCGR short antisense compound with C16 conjugate group at 2′-O via diamide linkage (GCTTCTCCATCATA; chemistry not fully specified)” the “GCGR mRNA expression” value (GCGR mRNA; single i.p. dose 6.25, 12.5, 25 or 50 mg) was “greatest decrease in target mRNA” and the “Glucose levels (post-bleed)” value ([2]; C57/BL6 mice, 48 hours after single i.p. dose) was “decreased in a dose-dependent manner”.
